Experimental data published in patent publication US7247634B2, “Rifamycin derivatives effective against drug-resistant microbes” (Cumbre Pharmaceuticals Inc., priority 2004, dated 2007).
Converted amounts (≈) assume the structure as drawn.

Key:
Format in all cases: cell-based
[1] = tested on: Staphylococcus aureus ATCC29213; assay: MIC, microbroth dilution (NCCLS); conditions: rifS strain, Cation-Adjusted Mueller-Hinton Broth, 37° C., read-out: Antimicrobial activity (MIC)
[2] = tested on: Staphylococcus aureus ATCC29213 rpoB^D417Y; assay: microbe, parasite or virus in culture; conditions: ATCC29213, read-out: Antimicrobial activity (MIC)
Outline: (§1)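 MICs by NCCLS broth microdilution, incubation at 37 °C, in cation-adjusted Mueller-Hinton broth. Strains: rifampin-resistant S. aureus ATCC 29213 with rpoB D417Y or H418Y, and quinolone-resistant EN1252a carrying gyrA S84L plus grlA S80F.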

[3] = tested on: Staphylococcus aureus ATCC29213 rpoB^H418Y; assay: microbe, parasite or virus in culture; conditions: ATCC29213, read-out: Antimicrobial activity (MIC)
Outline: as §1

[4] = tested on: Staphylococcus aureus EN1252a gyrA^S84L grlA^S80F; assay: microbe, parasite or virus in culture; conditions: read-out: Antimicrobial activity (MIC)
Outline: as §1

[5] = tested on: Staphylococcus epidermidis ATCC12228; assay: MIC, microbroth dilution (NCCLS); conditions: rifS strain, Cation-Adjusted Mueller-Hinton Broth, 37° C., read-out: Antimicrobial activity (MIC)
[6] = tested on: Streptococcus pneumoniae ATCC6303; assay: MIC, microbroth dilution (NCCLS); conditions: rifS strain, THY Broth with 1 mg/mL catalase, 5% CO2, 37° C., read-out: Antimicrobial activity (MIC)
[7] = tested on: Streptococcus pyogenes ATCC19615; assay: MIC, microbroth dilution (NCCLS); conditions: rifS strain, THY Broth, 37° C., read-out: Antimicrobial activity (MIC)
[8] = tested on: Enterococcus faecalis ATCC29212; assay: MIC, microbroth dilution (NCCLS); conditions: rifS strain, BHI Broth, 37° C., read-out: Antimicrobial activity (MIC)
[9] = tested on: Haemophilus influenzae ATCC10211; assay: MIC, microbroth dilution (NCCLS); conditions: rifS strain, BHI Broth with NAD and hematin, 37° C., read-out: Antimicrobial activity (MIC)
[10] = tested on: Escherichia coli ATCC25922; assay: MIC, microbroth dilution (NCCLS); conditions: rifS strain, Cation-Adjusted Mueller-Hinton Broth, 37° C., read-out: Antimicrobial activity (MIC)
[11] = tested on: Mycobacterium smegmatis ATCC700084; assay: MIC, microbroth dilution (NCCLS); conditions: Mycolicibacterium smegmatis, rifS strain, Middlebrook Broth plus ADC Enrichment, 37° C., read-out: Antimicrobial activity (MIC)

SMILES: CO[C@H]1/C=C/O[C@@]2(C)Oc3c(C)c(O)c4c(c3C2=O)C(=O)C(NCCN2CCN(c3ccc(N5C[C@H](CNC(C)=O)OC5=O)cc3F)CC2)=C(NC(=O)/C(C)=C\C=C\[C@H](C)[C@H](O)[C@@H](C)[C@@H](O)[C@@H](C)[C@H](OC(C)=O)[C@@H]1C)C4=O [Example 24, (S)-3-[4-[4-(5-Acetylaminomethyl-2-oxo-oxazolidin-3-yl)-2-fluoro-phenyl]-piperazin-1-ylethylamino]-rifamycin S]
- MIC [1]: 0.004 to 0.5 µg/mL (≈ 0.00373 to 0.466 µM)
- MIC [2]: 0.06 to 32 µg/mL (≈ 0.0559 to 29.8 µM)
- MIC [3]: 0.06 to 16 µg/mL (≈ 0.0559 to 14.9 µM)
- MIC [4]: 0.004 to 0.5 µg/mL (≈ 0.00373 to 0.466 µM)
- MIC [5]: 0.008 to 0.063 µg/mL (≈ 0.00745 to 0.0587 µM)
- MIC [6]: 0.008 to 0.125 µg/mL (≈ 0.00745 to 0.116 µM)
- MIC [7]: 0.008 to 0.063 µg/mL (≈ 0.00745 to 0.0587 µM)
- MIC [8]: 2 to 32 µg/mL (≈ 1.86 to 29.8 µM)
- MIC [9]: 0.125 to 2 µg/mL (≈ 0.116 to 1.86 µM)
- MIC [10]: 0.125 to 8 µg/mL (≈ 0.116 to 7.45 µM)
- MIC [11]: 0.5 to 64 µg/mL

SMILES: CO[C@H]1/C=C/O[C@@]2(C)Oc3c(C)c(O)c4c(c3C2=O)C(=O)C(NCC2CN(c3cc5c(cc3F)c(=O)c(C(=O)O)cn5C3CC3)C2)=C(NC(=O)/C(C)=C\C=C\[C@H](C)[C@H](O)[C@@H](C)[C@@H](O)[C@@H](C)[C@H](OC(C)=O)[C@@H]1C)C4=O [Example 25, 3-[1-(3-Carboxy-1-cyclopropyl-6-fluoro-4-oxo-1,4-dihydroquinolin-7-yl)azetidin-3-methylamino)rifamycin S]
- MIC [1]: 0.004 to 0.5 µg/mL (≈ 0.0039 to 0.488 µM)
- MIC [2]: 0.06 to 32 µg/mL (≈ 0.0585 to 31.2 µM)
- MIC [3]: 0.06 to 16 µg/mL (≈ 0.0585 to 15.6 µM)
- MIC [4]: 0.004 to 0.5 µg/mL (≈ 0.0039 to 0.488 µM)
- MIC [5]: 0.008 to 0.063 µg/mL (≈ 0.0078 to 0.0615 µM)
- MIC [6]: 0.008 to 0.125 µg/mL (≈ 0.0078 to 0.122 µM)
- MIC [7]: 0.008 to 0.063 µg/mL (≈ 0.0078 to 0.0615 µM)
- MIC [8]: 2 to 32 µg/mL (≈ 1.95 to 31.2 µM)
- MIC [9]: 0.125 to 2 µg/mL (≈ 0.122 to 1.95 µM)
- MIC [10]: 0.125 to 8 µg/mL (≈ 0.122 to 7.8 µM)
- MIC [11]: 0.5 to 64 µg/mL

SMILES: COc1c(N2CCN(C3=C4NC(=O)/C(C)=C\C=C\[C@H](C)[C@H](O)[C@@H](C)[C@@H](O)[C@@H](C)[C@H](OC(C)=O)[C@H](C)[C@@H](OC)/C=C/O[C@@]5(C)Oc6c(C)c(O)c(c(c6C5=O)C3=O)C4=O)CC2)c(F)cc2c(=O)c(C(=O)O)cn(C3CC3)c12 [Example 26, 3-[4-(3-Carboxy-1-cyclopropyl-6-fluoro-8-methoxy-4-oxo-1,4-dihydroquinolin-7-yl)-piperazin-1-yl]rifamycin S]
- MIC [1]: 0.004 to 0.5 µg/mL (≈ 0.00379 to 0.474 µM)
- MIC [2]: 0.06 to 32 µg/mL (≈ 0.0569 to 30.3 µM)
- MIC [3]: 0.06 to 16 µg/mL (≈ 0.0569 to 15.2 µM)
- MIC [4]: 0.004 to 0.5 µg/mL (≈ 0.00379 to 0.474 µM)
- MIC [5]: 0.008 to 0.063 µg/mL (≈ 0.00758 to 0.0597 µM)
- MIC [6]: 0.008 to 0.125 µg/mL (≈ 0.00758 to 0.118 µM)
- MIC [7]: 0.008 to 0.063 µg/mL (≈ 0.00758 to 0.0597 µM)
- MIC [8]: 2 to 32 µg/mL (≈ 1.9 to 30.3 µM)
- MIC [9]: 0.125 to 2 µg/mL (≈ 0.118 to 1.9 µM)
- MIC [10]: 0.125 to 8 µg/mL (≈ 0.118 to 7.58 µM)
- MIC [11]: 0.5 to 64 µg/mL

SMILES: COc1c(N2CCN(C3CCN(C4=C5NC(=O)/C(C)=C\C=C\[C@H](C)[C@H](O)[C@@H](C)[C@@H](O)[C@@H](C)[C@H](OC(C)=O)[C@H](C)[C@@H](OC)/C=C/O[C@@]6(C)Oc7c(C)c(O)c(c(c7C6=O)C4=O)C5=O)CC3)CC2)c(F)cc2c(=O)c(C(=O)O)cn(C3CC3)c12 [Example 31, 3-{4-[1-(3-Carboxy-1-cyclopropyl-6-fluoro-8-methoxy-4-oxo-1,4-dihydroquinolin-7-yl)-piperazin-4-yl]-piperidin-1-yl}rifamycin S]
- MIC [1]: 0.004 to 0.5 µg/mL (≈ 0.00351 to 0.439 µM)
- MIC [2]: 0.06 to 32 µg/mL (≈ 0.0527 to 28.1 µM)
- MIC [3]: 0.06 to 16 µg/mL (≈ 0.0527 to 14.1 µM)
- MIC [4]: 0.004 to 0.5 µg/mL (≈ 0.00351 to 0.439 µM)
- MIC [5]: 0.008 to 0.063 µg/mL (≈ 0.00703 to 0.0553 µM)
- MIC [6]: 0.008 to 0.125 µg/mL (≈ 0.00703 to 0.11 µM)
- MIC [7]: 0.008 to 0.063 µg/mL (≈ 0.00703 to 0.0553 µM)
- MIC [8]: 2 to 32 µg/mL (≈ 1.76 to 28.1 µM)
- MIC [9]: 0.125 to 2 µg/mL (≈ 0.11 to 1.76 µM)
- MIC [10]: 0.125 to 8 µg/mL (≈ 0.11 to 7.03 µM)
- MIC [11]: 0.5 to 64 µg/mL
